Laboratory results taken from the pKa sets of Baltruschat and Czodrowski (2020).
Where “and” joins values, the source holds several entries; their conditions need not be identical. Equal values may be shown once.

Conditions: acidic group

Point of comparison: `Sc1ccc2ncccc2c1`, pKa 6.5. Against it:
- Cc1ccccc1C(=S)Nc1ccccc1 — higher, 10.9
- O=c1cc(CO)occ1O — higher, 7.82
- CN(C)c1cc[nH+]c2c(O)cccc12 — higher, 7.05
- CCCCCCCC(=O)N[C@H]1C(=O)N2[C@H]1SC(C)(C)[C@H]2C(=O)O — lower, 2.66
- O=C(O)c1ccc(Cl)cc1Cl — lower, 2.74
- O=C(O)c1ccc(-c2nnn[nH]2)cc1 — lower, 3.63
- Oc1ccccc1Cl — higher, 8.4
- S=C(Nc1ccc(Br)cc1)c1cccc(Br)c1 — higher, 9.96
- O=C1CCc2ccc([N+](=O)[O-])cc2C1 — higher, 11.8
- c1ccc(-c2nc3ncncc3[nH]2)cc1 — higher, 8.09
- CCCCCCCc1c(-c2ccccc2)nn(-c2ccccc2)c1O — higher, 8
- [NH3+]CCCCC#CC#CCCC(=O)O — lower, 4.15
- Cc1cccc(NC=S)c1 — higher, 11.6
- COc1ccc(C(=O)O[C@H]2O[C@@H](C(=O)O)[C@H](O)[C@@H](O)[C@@H]2O)cc1OC — lower, 3.47
- C[NH+](C)Cc1ccc(NC(=O)/C=N/O)cc1 — higher, 8.43
- O=C(O)c1ccccc1Br — lower, 2.93
- O=[PH](O)C([NH2+]Cc1ccc[nH+]c1)c1ccccc1O (stereo not drawn) — lower, 2.35
- O=C(O)c1cc(=O)cc(-c2ccccc2)o1 — lower, 1.51
- CC(=O)N1CCC[C@H]1C(=O)O — lower, 3.21
- Cc1cc(C(C)C)cc(C)c1O — higher, 10.9
- O=C(c1ccccc1)c1ccc(O)c(O)c1 — higher, 7.74
- Cc1ccc(C(=O)O)cc1C — lower, 4.41
- CC(O)[C@@H]1C[NH2+][C@H](C(=O)O)[C@H]1CC(=O)O (stereo partly drawn) — lower, 2.94
- Fc1cccc(NC=S)c1 — higher, 10.9
- CCc1c(O)nn(-c2ccccc2C(=O)[O-])c1C — higher, 12.2
- O=C(O)c1ccc(/N=C/c2ccccc2)cc1 — lower, 4.47
- O=C(Oc1ccc([N+](=O)[O-])cc1)C1c2ccccc2-c2ccccc21 — higher, 9.9
- O=S(=O)(Nc1ccc(Cl)cc1)C(F)(F)F — lower, 3.9
- [O-]c1cc(O)nc[nH+]1 — lower, 5.4
- O=C1NC(=O)c2ccccc21 — higher, 9.91
- O=P(C1CCCCC1)(C1CCCCC1)C1CCCCC1 — higher, 13.7
- Oc1c(Cl)cc(Cl)cc1C[NH+]1CCOCC1 — lower, 5.67
- COC1=CC2CCC1(C(=O)O)CC2 — lower, 4.45
- C[n+]1c2ccccc2nc2c(O)cccc21 — lower, 4.85
- CCCCN(C(=O)c1cc([N+](=O)[O-])ccc1O)c1ccc(/N=N/c2ccc3c(c2)OCCOCCOCCOCCOCCO3)cc1 — lower, 6.3
- Oc1ccc2nccnc2c1 — higher, 7.92
- Oc1ccc2cccc(I)c2c1 — higher, 8.98
- O=[N+]([O-])c1ccc(S(=O)(=O)O)cc1 — lower, -7.15
- Cc1nnc(NS(=O)(=O)c2ccc(N)cc2)s1 — lower, 5.46
- COc1cc2ccc(=O)oc2cc1O — the same, 6.5
- O/N=C/c1ccccc1O — higher, 9.21
- CC(=O)c1ccc(O)c([N+](=O)[O-])c1 — lower, 5.09
- C[NH2+]C(C)(C)C(=O)O — lower, 2.2
- O=C(O)COc1ccc([N+](=O)[O-])cc1 — lower, 2.89
- C=C/C(C)=C/[C@@H](C)C(=O)C[C@@H](O)CC1CC(=O)NC(=O)C1 — higher, 11.2
- O=C(O)C1c2ccccc2Oc2ccccc21 — lower, 3.89
- NC(=O)CNCCCNCC(N)=O — higher, 7.27
- CC1(C)S[C@H]2[C@@H](NC(=O)Cc3ccc(O)cc3)C(=O)N2[C@@H]1C(=O)O — lower, 2.62
- N#Cc1ncnc2nc[nH]c12 — higher, 6.88
- CC1=CC(C)(C)SC(=S)N1 — higher, 10.9
- CCCCCCCCCCCCCC(=O)N(O)c1ccccc1 — higher, 9.05
- CC(=O)N(c1ccccc1)c1nnc(S(N)(=O)=O)s1 — higher, 7.32
- CC(C)(C#N)CC(=O)O — lower, 4.04
- Cc1ccc([N+](C)(C)O)cc1 — lower, 4.32
- CC(N)C(N)=O (stereo not drawn) — higher, 8.02
- CC(=O)c1cccc(O)c1 — higher, 9.12
- CC(C[Si](C)(C)CCl)C(=O)O (stereo not drawn) — lower, 5.32
- Cc1ccc(Br)cc1C(=O)O — lower, 3.58
- COc1c(O)cccc1CN — higher, 10.5
- O=C1O[C@@H]([C@@H](O)CO)C([O-])=C1O — higher, 11.3
- Oc1ccc2ccc3ccccc3c2c1 — higher, 9.28
- NC(=S)Nc1cccc(Cl)c1 — higher, 12
- Cc1ccc(NC(=S)c2ccc(Cl)cc2)cc1 — higher, 11.2
- CN(C)C(=O)/C=C(\O)c1ccncc1 — higher, 7.32

Same assay, conditions: basic group

Point of comparison: `C#CC(CC)(CC)N(CC)C(C)C`, pKa 8.2. Against it:
- CN1CCCN(C)Cc2ccccc2OCCOc2ccccc2C1 — higher, 10.1
- Cc1ccc(/C(N)=N/O)cc1 — lower, 5.14
- COc1ccc(Nc2ccccc2)cc1 — lower, 1.38
- Cc1ccccc1NC(C)(C)C — lower, 6.49
- N[C@@H]1CCCC[C@@H]1O — higher, 9.72
- N[C@H](C(=O)[O-])[C@H](O)C(=O)[O-] — higher, 8.75
- CCc1ccc(C(=O)[O-])nc1 — lower, 5.86
- C1CNCNC1 — higher, 8.84
- C1CNCCSCCNC1 — higher, 12
- C[NH+](C)CCN1C=Nc2cccc3cccc1c23 — lower, 4.64
- COc1c(C(=O)N[C@@H]2C[C@H]3CC[C@@H](C2)N3Cc2ccccc2)cccc1[N+](=O)[O-] — higher, 8.61
- O=C([O-])[C@@H]1Cc2[nH]cnc2C[NH2+]1 — lower, 4.73
- CCC/C(N)=C/C(=O)c1ccccc1 — lower, -1.12
- Nc1cnc([S-])nc1N — higher, 10.4
- Cc1cnoc1C — lower, 0
- CN(C)c1cc[n+](C)c([O-])n1 — lower, 4.2
- NC[C@H]1CCCC[C@@H]1O — higher, 10.2
- c1ccc(-c2nc3ncncc3[nH]2)cc1 — lower, 2.68
- Cc1ncc(CO)c(CN)c1[O-] — higher, 10.3
- c1cncc(-c2ccc[nH]2)c1 — lower, 4.32
- CCC(O)CN(C)CC(O)CC (stereo not drawn) — higher, 9
- Cc1nc2ccccc2[nH]1 — lower, 6.3
- Cc1ccccc1NC1CCCC1 — lower, 5.07
- CN(C)Cc1cc([N+](=O)[O-])ccc1[O-] — higher, 9.93
- C(=C/c1ccncc1)/c1ccccc1 — lower, 5.77
- Cc1cc(C)c2cccc(C)c2n1 — lower, 4.48
- CC(C)NNC1CC[NH+](C)CC1 — lower, 6.32
- Cc1ccc(C)nc1 — lower, 6.4
- N#CC(C#N)=NNc1ccc(C(=O)CCl)cc1 — lower, -0.76
- CCCCNCc1ccc(C)cc1 — higher, 9.98
- N/C(CC/C(N)=[NH+]/O)=N\O — lower, 3.11
- CCOc1ccc2c3c1O[C@H]1[C@@H](O)C=C[C@H]4[C@@H](C2)N(C)CC[C@@]341 — within 0.2 log units, 8.03
- COC(=O)CN — lower, 7.64
- OC[C@@H]1O[C@H](n2ccc3c2ncn2ccnc32)[C@@H](O)[C@H]1O — lower, 5.49
- OCCNc1ccccc1 — lower, 4.09
- [O-]c1[nH+]cncc1O — lower, 1.99
- CCCCN1CCCC1C (stereo not drawn) — higher, 10.7
- CCCC[NH2+]CCN — lower, 7.53
- C[n+]1cccnc1[O-] — lower, 2.5
- CC(=O)OCCc1c[nH]cn1 — lower, 6.97
- NOCc1ccc([N+](=O)[O-])cc1 — lower, 3.96
- C=CCC(C)(CN(CC)CC)OC(=O)CC(C)C (stereo not drawn) — within 0.2 log units, 8.1
- CCCCCN(CC(C)O)CC(O)CC (stereo not drawn) — higher, 9.1
- O=C(O)c1ccc(/N=C/c2ccccc2)cc1 — lower, 1.97
- C/C(CCN(C)C)=N\[O-] — higher, 11.2
- CCc1c(-c2ccccc2)nn(C2CCN(C)CC2)c1[O-] — higher, 9.15
- CCOC(=O)CCN(C)C — higher, 8.6
- Cn1c(CBr)nc2c(O)ccc(O)c21 — lower, 3.99
- N[C@H]1CCCC[C@@H]1O — higher, 9.35
- CCCCN(CCCC)c1nnc(-c2ccccc2)cc1C — lower, 4.88
- O=[N+]([O-])c1cc(-c2ccccc2)nnc1NCC[NH+]1CCOCC1 — lower, 0.2
- Cc1n[nH]c2c(NCc3ccccc3)ncnc12 — lower, 4.95
- O=P(C1CCCCC1)(C1CCCCC1)C1CCCCC1 — lower, 5.04
- CCN(CC)Cc1cc(Cl)cc(Cl)c1[O-] — higher, 11.6
- C[C@H](CCCNCc1ccccc1)[C@H]1CC[C@H]2[C@@H]3CC[C@@H]4C[C@H](O)CC[C@]4(C)[C@H]3C[C@H](O)[C@]12C — higher, 9.07
- CCN(CC)C(C)O (stereo not drawn) — higher, 10.2
- COc1ccc(CCN)cc1OC — higher, 9.87
- COc1c(Br)cccc1C(=O)N[C@@H]1C[C@H]2CC[C@@H](C1)N2Cc1ccccc1 — higher, 8.73
- OCc1c[nH]cn1 — lower, 6.38
- COc1c(C)ncc(CO)c1C=O — lower, 4.75
- c1ccc(-c2cccc[nH+]2)nc1 — lower, 1.47
- Oc1ccc2nccnc2c1 — lower, 1.4
- Cc1nnc(NS(=O)(=O)c2ccc(N)cc2)s1 — lower, 2.19
- O/N=C/c1ccccc1O — lower, 1.37
- O=[N+]([O-])c1ccc([O-])c(CN2CCOCC2)c1 — lower, 7.92
- Cc1ccccc1/C(=N\CCCN(C)C)c1ccccc1-c1ccccc1 — higher, 9.25
- COc1ccc2c(c1)CCN2 — lower, 6.1
- CCCCN(CCCC)c1ccccc1 — lower, 6.41
- COc1ccnc2c1ccc1c(OC)ccnc12 — lower, 6.45
- CC1=C(CC(C)NCC(O)c2ccc(F)cc2)CCC1(C)C (stereo not drawn) — higher, 8.51
- CCN(CC)CCCCCCCC(C)Nc1c2ccc(Cl)cc2nc2ccc(OC)cc12 (stereo not drawn) — higher, 10.4
- Nc1nnnn1-c1ccc([N+](=O)[O-])cc1 — lower, 0.34
- Cc1nnc(N)nc1C — lower, 3.71
- COc1ccc(-c2ncc(-c3ccc(C)cc3)o2)cc1 — lower, 1.34
- CN(C)c1ccc(/N=N/c2ccccn2)cc1 — lower, 4.5
- CNOC — lower, 4.75
- [O-]c1[nH+]ccc2c1cnc1ccccc12 — lower, 4.1
- CC(CN)/C(N)=N/O (stereo not drawn) — higher, 9.15
- Nc1ccnnc1 — lower, 6.69
- CCCCCSC(=N)c1ccccc1 — higher, 8.5
- NCCCCCO — higher, 10.5
- Nc1nc(N(CCO)CCO)nc(N(CCO)CCO)n1 — lower, 5.15
- CCSC(C)=N — lower, 6.9
- CC(C)NCC(O)c1cccc(F)c1 (stereo not drawn) — higher, 9.48
- NCc1ccc(Cl)cc1[N+](=O)[O-] — within 0.2 log units, 8.34
- Cc1cccc(C)c1Oc1ccccn1 — lower, 2.26
- Oc1onc2c1CCNCC2 — higher, 9.6
- NCCc1cnc[nH]1 — higher, 9.4
- CC1(C)S[C@H]2C(C(=O)[O-])[NH+]=C(CCCC(N)C(=O)[O-])N2C1C(=O)[O-] (stereo partly drawn) — lower, 7.6
- COc1c(O)cccc1CN — higher, 8.89
- CCN(CC)CCSC1CCCCC1 — within 0.2 log units, 8.11
- Cc1c(C(C)C)c(=O)n(-c2ccccc2)n1C — lower, 2.4
- NCCCC[NH2+]CCCN — higher, 9.86
- CN(C)CCC(c1ccccc1)c1ccccc1 — higher, 9.4
- c1ccc2nnccc2c1 — lower, 2.29
- C=C(C)C(=O)OCCN — higher, 8.7
- CCCCCCN(CCO)CC(C)O (stereo not drawn) — higher, 9
- Cc1c(Cn2ccnc2)n(C)c2ccc(C(=O)[O-])cc12 — lower, 6.32
- Nc1n[nH]c(N)c1/N=N/c1ccccc1 — lower, 3.43
- CCCCCCCCCCN(CC(C)O)CC(C)O (stereo not drawn) — lower, 7.6
- C=CC(C)(C)NC(C)(C)CC — higher, 10.8

With `COc1cc(S(C)=O)ccc1-c1nc2ncccc2[nH]1` (stereo not drawn) the pKa was 3.91 and 3.89.
